Results published in patent publication US11566057B2, “Long-acting co-agonists of the glucagon and GLP-1 receptors” (Merck Sharp & Dohme Corp., priority 2017, dated 2023).
pEC50: −log10 of the molar value. Like-named read-outs stand apart in the source and are kept apart here. Numbered stars: 1 amine (or outer) side, 2 acyl side, 3 side chain; on linkers, the order of the positions; unused ones are H or OH. Square brackets hold non-standard residues; d marks the D form. Side chains are listed from the residue outwards. Peptide text beside a SMILES is read from it. * marks the point of attachment. C20 diacid = O=C(O)CCCCCCCCCCCCCCCCCCC(=O)*; Phe(4-CH2NH2) = NCc1ccc(C[C@H](N)C(=O)O)cc1; C18 diacid = O=C(O)CCCCCCCCCCCCCCCCC(=O)*; C16 diacid = O=C(O)CCCCCCCCCCCCCCC(=O)*; γGlu = O=C(O)[C@H](CCC(=O)[*:2])N[*:1]; Met(O2) = CS(=O)(=O)CC[C@H](N)C(=O)O; αMeD = C[C@](N)(CC(=O)O)C(=O)O; αMeS = C[C@](N)(CO)C(=O)O; AEEA = NCCOCCOCC(=O)O; Aib = CC(C)(N)C(=O)O

How the values were obtained:
human GLP1R = biological target: T1, human GLP1R (Homo sapiens, UniProt P43220); assay: cAMP activity assay at the GLP-1 receptor (GLP1R); assay type: cell-based
T1 construct: expressed in transfected cells; growth medium holds Blasticidin and Hygromycin
Outline: (§1)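 Peptides serially diluted from DMSO (10 points) and added to frozen-stock cells bearing human GLP1R (10,000 cells/well) or GCGR (30,000 cells/well), 1 h at RT, dark. EC50 by four-parameter logistic fit of HitHunter cAMPXS luminescence, read following overnight RT incubation.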

human GCGR = biological target: T2, human GCGR (Homo sapiens, UniProt P47871); assay: cAMP activity assay at the Glucagon receptor (GCGR); assay type: cell-based; conditions: for hGCGR/hGLP1R (hTone): ratio of GCGR EC50 to GLP1R EC50
T2 construct: expressed in transfected cells; growth medium holds Blasticidin and Hygromycin
Outline: as §1

[1] = cells expressing human GLP1R, cAMP production, buffer with or without 20% human serum (not stated which), read-out: GLP1R EC50 human
[2] = summary statement: EC50 at each of the glucagon and GLP-1 receptors, read-out: EC50 at the GLP-1 receptor
[3] = summary statement: EC50 at each of the glucagon and GLP-1 receptors, read-out: EC50 at the glucagon receptor

T2 sequence (P47871 26-477): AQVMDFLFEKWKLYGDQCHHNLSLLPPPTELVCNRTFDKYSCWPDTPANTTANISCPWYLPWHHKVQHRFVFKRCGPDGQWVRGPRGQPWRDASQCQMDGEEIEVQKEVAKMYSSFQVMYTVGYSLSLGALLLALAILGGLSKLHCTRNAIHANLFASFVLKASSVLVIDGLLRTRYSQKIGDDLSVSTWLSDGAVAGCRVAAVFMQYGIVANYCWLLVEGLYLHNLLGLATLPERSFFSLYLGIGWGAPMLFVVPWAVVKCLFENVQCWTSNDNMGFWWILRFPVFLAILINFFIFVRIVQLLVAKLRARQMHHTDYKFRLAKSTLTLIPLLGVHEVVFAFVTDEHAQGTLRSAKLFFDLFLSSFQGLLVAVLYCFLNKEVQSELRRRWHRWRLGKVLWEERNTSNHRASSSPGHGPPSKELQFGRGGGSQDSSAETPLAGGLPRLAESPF
T1 sequence (P43220 24-463): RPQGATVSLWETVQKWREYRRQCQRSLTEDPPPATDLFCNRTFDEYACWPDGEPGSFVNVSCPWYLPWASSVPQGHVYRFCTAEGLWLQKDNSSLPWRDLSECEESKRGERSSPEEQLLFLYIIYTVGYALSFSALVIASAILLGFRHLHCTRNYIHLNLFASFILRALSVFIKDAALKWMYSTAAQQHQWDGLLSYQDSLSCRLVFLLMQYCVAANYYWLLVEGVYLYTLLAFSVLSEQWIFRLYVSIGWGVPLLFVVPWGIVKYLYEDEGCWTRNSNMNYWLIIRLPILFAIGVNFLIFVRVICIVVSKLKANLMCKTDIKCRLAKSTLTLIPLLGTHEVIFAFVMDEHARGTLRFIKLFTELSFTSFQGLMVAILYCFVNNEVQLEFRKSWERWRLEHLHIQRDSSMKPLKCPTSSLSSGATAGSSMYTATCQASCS

pEC50 (human GLP1R; [1]) | pEC50 (human GCGR; cells expressing human GCGR, cAMP production, buffer with or without 20% human serum (not stated which), read-out: GCGR EC50 human) | hGCGR/hGLP1R (hTone) (human GCGR) | pEC50 (human GLP1R; [2]) | pEC50 (human GCGR; [3]) | SMILES
8.31 | 9.14 | <0.15 |  |  | CC(C)C[C@H](NC(=O)[C@H](Cc1c[nH]c2ccccc12)NC(=O)[C@H](CCC(N)=O)NC(=O)[C@@H](NC(=O)[C@H](Cc1ccccc1)NC(=O)[C@H](CC(=O)O)NC(=O)[C@H](CCCCNC(=O)COCCOCCNC(=O)COCCOCCNC(=O)CC[C@H](NC(=O)CCCCCCCCCCCCCCCCCCC(=O)O)C(=O)O)NC(=O)[C@H](C)NC(=O)[C@H](C)NC(=O)[C@H](CCCNC(=N)N)NC(=O)C(C)(C)NC(=O)[C@H](CC(=O)O)NC(=O)[C@H](CC(C)C)NC(=O)[C@H](Cc1ccc(O)cc1)NC(=O)[C@H](CCCCN)NC(=O)[C@H](CO)NC(=O)[C@H](Cc1ccc(O)cc1)NC(=O)[C@H](CC(=O)O)NC(=O)[C@H](CO)NC(=O)[C@@H](NC(=O)[C@H](Cc1ccccc1)NC(=O)[C@@H](NC(=O)CNC(=O)[C@H](CCC(N)=O)NC(=O)[C@](C)(CO)NC(=O)[C@@H](N)Cc1c[nH]cn1)[C@@H](C)O)[C@@H](C)O)C(C)C)C(=O)N[C@@H](CCS(C)(=O)=O)C(=O)N[C@@H](CC(=O)O)C(=O)N[C@H](C(N)=O)[C@@H](C)O [TP593] (H-H[αMeS]QGTFTSDYSKYLD[Aib]RAAK([AEEA-AEEA-γGlu-C20 diacid])DFVQWL[Met(O2)]DT-NH2)
9.12 |  | 1.9 | > 8.30 | > 8.30 | CC(C)C[C@H](NC(=O)[C@H](Cc1ccc(O)cc1)NC(=O)[C@H](CCCCN)NC(=O)[C@H](CO)NC(=O)[C@H](Cc1ccc(O)cc1)NC(=O)[C@H](CC(=O)O)NC(=O)[C@H](CO)NC(=O)[C@@H](NC(=O)[C@H](Cc1ccccc1)NC(=O)[C@@H](NC(=O)CNC(=O)[C@H](CCC(N)=O)NC(=O)C(C)(C)NC(=O)[C@@H](N)Cc1c[nH]cn1)[C@@H](C)O)[C@@H](C)O)C(=O)N[C@@H](CC(=O)O)C(=O)N[C@@H](C)C(=O)N[C@@H](CCCNC(=N)N)C(=O)N[C@@H](C)C(=O)N[C@@H](C)C(=O)N[C@@H](CCCCNC(=O)COCCOCCNC(=O)COCCOCCNC(=O)COCCOCCNC(=O)CC[C@H](NC(=O)CCCCCCCCCCCCCCCCC(=O)O)C(=O)O)C(=O)N[C@@H](CC(=O)O)C(=O)N[C@@H](Cc1ccccc1)C(=O)N[C@H](C(=O)N[C@@H](CCC(N)=O)C(=O)N[C@@H](Cc1c[nH]c2ccccc12)C(=O)N[C@@H](CC(C)C)C(=O)N[C@@H](CCS(C)(=O)=O)C(=O)N[C@@](C)(CC(=O)O)C(=O)N[C@H](C(N)=O)[C@@H](C)O)C(C)C [TP677] (H-H[Aib]QGTFTSDYSKYLDARAAK([AEEA-AEEA-AEEA-γGlu-C18 diacid])DFVQWL[Met(O2)][αMeD]T-NH2; N-terminus assumed)
 |  | 4.6 | > 8.30 | > 8.30 | CC(C)C[C@H](NC(=O)[C@H](Cc1ccc(O)cc1)NC(=O)[C@H](CCCCN)NC(=O)[C@H](CO)NC(=O)[C@H](Cc1ccc(O)cc1)NC(=O)[C@H](CC(=O)O)NC(=O)[C@H](CO)NC(=O)[C@@H](NC(=O)[C@H](Cc1ccccc1)NC(=O)[C@@H](NC(=O)CNC(=O)[C@H](CCC(N)=O)NC(=O)C(C)(C)NC(=O)[C@@H](N)Cc1c[nH]cn1)[C@@H](C)O)[C@@H](C)O)C(=O)N[C@@H](CC(=O)O)C(=O)N[C@@H](C)C(=O)N[C@@H](CCCNC(=N)N)C(=O)N[C@@H](C)C(=O)N[C@@H](C)C(=O)N[C@@H](CCC(N)=O)C(=O)N[C@@H](CC(=O)O)C(=O)N[C@@H](Cc1ccccc1)C(=O)N[C@H](C(=O)N[C@@H](Cc1ccc(CNC(=O)COCCOCCNC(=O)COCCOCCNC(=O)CC[C@H](NC(=O)CCCCCCCCCCCCCCCCCCC(=O)O)C(=O)O)cc1)C(=O)N[C@@H](Cc1c[nH]c2ccccc12)C(=O)N[C@@H](CC(C)C)C(=O)N[C@@H](CC(C)C)C(=O)N[C@@H](CC(=O)O)C(=O)N[C@H](C(N)=O)[C@@H](C)O)C(C)C [TP584] (H-H[Aib]QGTFTSDYSKYLDARAAQDFV[Phe(4-CH2NH2)]([AEEA-AEEA-γGlu-C20 diacid])WLLDT-NH2)
 |  | 0.1 | > 8.30 | > 8.30 | CC(C)C[C@H](NC(=O)[C@H](Cc1ccc(O)cc1)NC(=O)[C@H](CCCCN)NC(=O)[C@H](CO)NC(=O)[C@H](Cc1ccc(O)cc1)NC(=O)[C@H](CC(=O)O)NC(=O)[C@H](CO)NC(=O)[C@@H](NC(=O)[C@H](Cc1ccccc1)NC(=O)[C@@H](NC(=O)CNC(=O)[C@H](CCC(N)=O)NC(=O)[C@](C)(CO)NC(=O)[C@@H](N)Cc1c[nH]cn1)[C@@H](C)O)[C@@H](C)O)C(=O)N[C@@H](CC(=O)O)C(=O)NC(C)(C)C(=O)N[C@@H](CCCNC(=N)N)C(=O)N[C@@H](C)C(=O)N[C@@H](C)C(=O)N[C@@H](CCCCNC(=O)COCCOCCNC(=O)COCCOCCNC(=O)CC[C@H](NC(=O)CCCCCCCCCCCCCCCCC(=O)O)C(=O)O)C(=O)N[C@@H](CC(=O)O)C(=O)N[C@@H](Cc1ccccc1)C(=O)N[C@H](C(=O)N[C@@H](CCC(N)=O)C(=O)N[C@@H](Cc1c[nH]c2ccccc12)C(=O)N[C@@H](CC(C)C)C(=O)N[C@@H](CCS(C)(=O)=O)C(=O)N[C@@](C)(CC(=O)O)C(=O)N[C@H](C(N)=O)[C@@H](C)O)C(C)C [TP620] (H-H[αMeS]QGTFTSDYSKYLD[Aib]RAAK([AEEA-AEEA-γGlu-C18 diacid])DFVQWL[Met(O2)][αMeD]T-NH2; N-terminus assumed)
 |  | 0.9 | > 8.30 | > 8.30 | CC(C)C[C@H](NC(=O)[C@H](Cc1ccc(O)cc1)NC(=O)[C@H](CCCCN)NC(=O)[C@H](CO)NC(=O)[C@H](Cc1ccc(O)cc1)NC(=O)[C@H](CC(=O)O)NC(=O)[C@H](CO)NC(=O)[C@@H](NC(=O)[C@H](Cc1ccccc1)NC(=O)[C@@H](NC(=O)CNC(=O)[C@H](CCC(N)=O)NC(=O)C(C)(C)NC(=O)[C@@H](N)Cc1c[nH]cn1)[C@@H](C)O)[C@@H](C)O)C(=O)N[C@@H](CC(=O)O)C(=O)NC(C)(C)C(=O)N[C@@H](CCCNC(=N)N)C(=O)N[C@@H](C)C(=O)N[C@@H](C)C(=O)N[C@@H](CCCCNC(=O)COCCOCCNC(=O)COCCOCCNC(=O)CC[C@H](NC(=O)CCCCCCCCCCCCCCCCCCC(=O)O)C(=O)O)C(=O)N[C@@H](CC(=O)O)C(=O)N[C@@H](Cc1ccccc1)C(=O)N[C@H](C(=O)N[C@@H](CCC(N)=O)C(=O)N[C@@H](Cc1c[nH]c2ccccc12)C(=O)N[C@@H](CC(C)C)C(=O)N[C@@H](CCS(C)(=O)=O)C(=O)N[C@@](C)(CC(=O)O)C(=O)N[C@H](C(N)=O)[C@@H](C)O)C(C)C [TP588] (H-H[Aib]QGTFTSDYSKYLD[Aib]RAAK([AEEA-AEEA-γGlu-C20 diacid])DFVQWL[Met(O2)][αMeD]T-NH2; N-terminus assumed)
 |  | 2.7 | > 8.30 | > 8.30 | CC(C)C[C@H](NC(=O)[C@H](Cc1ccc(O)cc1)NC(=O)[C@H](CCCCN)NC(=O)[C@H](CO)NC(=O)[C@H](Cc1ccc(O)cc1)NC(=O)[C@H](CC(=O)O)NC(=O)[C@H](CO)NC(=O)[C@@H](NC(=O)[C@H](Cc1ccccc1)NC(=O)[C@@H](NC(=O)CNC(=O)[C@H](CCC(N)=O)NC(=O)C(C)(C)NC(=O)[C@@H](N)Cc1c[nH]cn1)[C@@H](C)O)[C@@H](C)O)C(=O)N[C@@H](CC(=O)O)C(=O)N[C@@H](C)C(=O)N[C@@H](CCCNC(=N)N)C(=O)N[C@@H](C)C(=O)N[C@@H](C)C(=O)N[C@@H](CCCCNC(=O)COCCOCCNC(=O)COCCOCCNC(=O)CC[C@H](NC(=O)CCCCCCCCCCCCCCC(=O)O)C(=O)O)C(=O)N[C@@H](CC(=O)O)C(=O)N[C@@H](Cc1ccccc1)C(=O)N[C@H](C(=O)N[C@@H](CCC(N)=O)C(=O)N[C@@H](Cc1c[nH]c2ccccc12)C(=O)N[C@@H](CC(C)C)C(=O)N[C@@H](CCS(C)(=O)=O)C(=O)N[C@@H](CCC(=O)N[C@H](C(N)=O)[C@@H](C)O)C(=O)O)C(C)C [TP826] (H-H[Aib]QGTFTSDYSKYLDARAAK([AEEA-AEEA-γGlu-C16 diacid])DFVQWL[Met(O2)][γGlu]T-NH2)
8.31 |  |  | > 8.30 | > 8.30 | CC(C)C[C@H](NC(=O)[C@H](Cc1c[nH]c2ccccc12)NC(=O)[C@H](CCC(N)=O)NC(=O)[C@@H](NC(=O)[C@H](Cc1ccccc1)NC(=O)[C@H](CC(=O)O)NC(=O)[C@H](CCCCNC(=O)COCCOCCNC(=O)COCCOCCNC(=O)CC[C@H](NC(=O)CCCCCCCCCCCCCCCCCCC(=O)O)C(=O)O)NC(=O)[C@H](C)NC(=O)[C@H](C)NC(=O)[C@H](CCCNC(=N)N)NC(=O)C(C)(C)NC(=O)[C@H](CC(=O)O)NC(=O)[C@H](CC(C)C)NC(=O)[C@H](Cc1ccc(O)cc1)NC(=O)[C@H](CCCCN)NC(=O)[C@H](CO)NC(=O)[C@H](Cc1ccc(O)cc1)NC(=O)[C@H](CC(=O)O)NC(=O)[C@H](CO)NC(=O)[C@@H](NC(=O)[C@H](Cc1ccccc1)NC(=O)[C@@H](NC(=O)CNC(=O)[C@H](CCC(N)=O)NC(=O)[C@@H](CO)NC(=O)[C@@H](N)Cc1c[nH]cn1)[C@@H](C)O)[C@@H](C)O)C(C)C)C(=O)N[C@@H](CCS(C)(=O)=O)C(=O)N[C@@H](CC(=O)O)C(=O)N[C@H](C(N)=O)[C@@H](C)O [TP578]
